In PubChem BioAssay AID330 (DTP/NCI, 2004):
Inconclusive results and toxic doses are left out. The calls were made as follows: active = survival T/C of 150% or more; inactive = T/C below 125% in these data.

System: P388 leukemia ip, CD2F1 mice, survival T/C
Assay: NCI In Vivo Anticancer Drug Screen. Data for tumor model P388 Leukemia (intraperitoneal) in CD2F1 (CDF1) mice
Details: endpoint: median survival time, higher = longer survival
In short: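 Mice carrying the transplanted tumor received test compound or vehicle. Survival was recorded in each group, and the value is the treated-group measurement divided by that of the vehicle-treated control group.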

[1] = dose: 50.0 mg/kg/injection, schedule: Q01DX005 (ip), vehicle: saline with Tween-80
[2] = dose: 100.0 mg/kg/injection, schedule: Q01DX005 (ip), vehicle: saline with Tween-80
[3] = dose: 200.0 mg/kg/injection, schedule: Q01DX005 (ip), vehicle: saline with Tween-80
[4] = dose: 50.0 mg/kg/injection, schedule: Q01DX005 (ip), vehicle: Klucel (hydroxypropylcellulose) (HPC)
[5] = dose: 100.0 mg/kg/injection, schedule: Q01DX005 (ip), vehicle: Klucel (hydroxypropylcellulose) (HPC)
[6] = dose: 200.0 mg/kg/injection, schedule: Q01DX005 (ip), vehicle: Klucel (hydroxypropylcellulose) (HPC)
[7] = dose: 60.0 mg/kg/injection, schedule: Q01DX005 (ip), vehicle: saline with Tween-80
[8] = dose: 120.0 mg/kg/injection, schedule: Q01DX005 (ip), vehicle: saline with Tween-80
[9] = dose: 240.0 mg/kg/injection, schedule: Q01DX005 (ip), vehicle: saline with Tween-80
[10] = dose: 60.0 mg/kg/injection, schedule: Q01DX005 (ip), vehicle: Klucel (hydroxypropylcellulose) (HPC)
[11] = dose: 120.0 mg/kg/injection, schedule: Q01DX005 (ip), vehicle: Klucel (hydroxypropylcellulose) (HPC)
[12] = dose: 240.0 mg/kg/injection, schedule: Q01DX005 (ip), vehicle: Klucel (hydroxypropylcellulose) (HPC)
[13] = dose: 25.0 mg/kg/injection, schedule: Q01DX009 (ip), vehicle: saline with Tween-80
[14] = dose: 50.0 mg/kg/injection, schedule: Q01DX009 (ip), vehicle: saline with Tween-80

Measured: T/C

C(=C(\CCc1ccccn1)c1ccccn1)/c1cccnc1
inactive: dose: 100.0 mg/kg/injection, schedule: Q01DX001 (ip), vehicle: saline 100 % of control | dose: 200.0 mg/kg/injection, schedule: Q01DX001 (ip), vehicle: saline 101 % of control | dose: 400.0 mg/kg/injection, schedule: Q01DX001 (ip), vehicle: saline 104 % of control

CC(=O)NCCc1nc(-c2nc(C(=O)NCCCN)cs2)cs1
inactive: dose: 12.5 mg/kg/injection, schedule: Q01DX009 (ip), vehicle: water 93 % of control | dose: 25.0 mg/kg/injection, schedule: Q01DX009 (ip), vehicle: water 98 % of control | dose: 50.0 mg/kg/injection, schedule: Q01DX009 (ip), vehicle: water 108 % of control | dose: 100.0 mg/kg/injection, schedule: Q01DX009 (ip), vehicle: water 99 % of control | dose: 200.0 mg/kg/injection, schedule: Q01DX009 (ip), vehicle: water 98 % of control

NC(CCC(=O)NC(CS(=O)(=O)O)C(=O)O)C(=O)O (stereo not given)
inactive: dose: 60.0 mg/kg/injection, schedule: Q01DX005 (ip), vehicle: saline 108 % of control | dose: 120.0 mg/kg/injection, schedule: Q01DX005 (ip), vehicle: saline 108 % of control | dose: 240.0 mg/kg/injection, schedule: Q01DX005 (ip), vehicle: saline 108 % of control

O=C1NCCCC1(Cl)Cl
inactive: dose: 12.5 mg/kg/injection, schedule: Q01DX009 (ip), vehicle: Klucel (hydroxypropylcellulose) (HPC) 100 % of control | dose: 25.0 mg/kg/injection, schedule: Q01DX009 (ip), vehicle: Klucel (hydroxypropylcellulose) (HPC) 104 % of control | dose: 50.0 mg/kg/injection, schedule: Q01DX009 (ip), vehicle: Klucel (hydroxypropylcellulose) (HPC) 94 % of control

CCOC(=O)C(=Cc1ccc(OC)c(OC)c1)C(=O)OCC
inactive: [1] 110 % of control | [2] 102 % of control | [3] 103 % of control

CSc1ccc(C)cc1C(C)=O
inactive: dose: 50.0 mg/kg/injection, schedule: Q01DX005 (ip), vehicle: acetone 93 % of control | dose: 100.0 mg/kg/injection, schedule: Q01DX005 (ip), vehicle: acetone 99 % of control | dose: 200.0 mg/kg/injection, schedule: Q01DX005 (ip), vehicle: acetone 100 % of control

c1ccc(-c2ccc[n+](CCCC[n+]3cccc(-c4ccccn4)c3)c2)nc1
inactive: dose: 7.5 mg/kg/injection, schedule: Q01DX005 (ip), vehicle: saline 106 % of control | dose: 15.0 mg/kg/injection, schedule: Q01DX005 (ip), vehicle: saline 106 % of control

C[C@]12CC[C@H]3[C@@H](C[C@H]4OC[C@@]35CC[C@H](O)C[C@]45Br)[C@@H]1CC[C@@H]2O
inactive: [4] 97 % of control | [5] 97 % of control | [6] 96 % of control

COC(=O)c1cc(-c2ccco2)c2c(=O)n(-c3ccccc3)[nH]c2n1
inactive: [7] 103 % of control | [8] 105 % of control | [9] 94 % of control

O=C(O)c1cnc2cc3c(cc2c1Nc1ccccc1)OCO3
inactive: [10] 99 % of control | [11] 102 % of control | [12] 90 % of control

COc1ccc(OC)c(C=Nc2ccc(S(=O)(=O)Nc3nccc(C)n3)cc2)c1
inactive: dose: 12.5 mg/kg/injection, schedule: Q01DX009 (ip), vehicle: saline with Tween-80 90 % of control | [13] 90 % of control | [14] 87 % of control | dose: 200.0 mg/kg/injection, schedule: Q01DX009 (ip), vehicle: saline with Tween-80 100 % of control

O=c1oc2ccccc2cc1S(=O)(=O)c1ccc(Cl)cc1
inactive: [7] 91 % of control | [8] 92 % of control | [9] 91 % of control

CCOC(=O)CCN(C(C)=O)C(CC(C)C)C(=O)OCC (stereo not given)
inactive: [1] 98 % of control | [2] 105 % of control | [3] 105 % of control

COCCN=NNc1ccc(C#N)cc1
inactive: dose: 12.5 mg/kg/injection, schedule: Q01DX009 (ip), vehicle: distilled water + Tween-80 100 % of control | dose: 25.0 mg/kg/injection, schedule: Q01DX009 (ip), vehicle: distilled water + Tween-80 105 % of control | dose: 50.0 mg/kg/injection, schedule: Q01DX009 (ip), vehicle: distilled water + Tween-80 101 % of control | dose: 100.0 mg/kg/injection, schedule: Q01DX009 (ip), vehicle: distilled water + Tween-80 97 % of control

CCB1OC2OC3C4OB(CC)OC4OC3C2O1 (stereo not given)
inactive: [1] 103 % of control | [2] 103 % of control | [3] 103 % of control

CCC(=O)C[N+]12CCN(CC1)CC2
inactive: dose: 25.0 mg/kg/injection, schedule: Q04DX002 (ip), vehicle: Klucel (hydroxypropylcellulose) (HPC) 105 % of control | dose: 50.0 mg/kg/injection, schedule: Q04DX002 (ip), vehicle: Klucel (hydroxypropylcellulose) (HPC) 104 % of control

CCCCCCCC(=O)Nc1cc2c3c(c1)CCC(=O)N3CCC2
inactive: [4] 100 % of control | [5] 100 % of control | [6] 98 % of control

CN1/C(=C2\C=CC=C\C2=N/S(=O)(=O)c2ccccc2)Sc2ccccc21
inactive: dose: 100.0 mg/kg/injection, schedule: Q04DX003 (ip), vehicle: saline 104 % of control | dose: 200.0 mg/kg/injection, schedule: Q04DX003 (ip), vehicle: saline 99 % of control | dose: 400.0 mg/kg/injection, schedule: Q04DX003 (ip), vehicle: saline 94 % of control

O=[N+]([O-])c1ccc(N2C(c3ccccc3)=N[C@@H](N3CCCCC3)[C@@H]2N2CCCCC2)cc1
inactive: [4] 97 % of control | [5] 100 % of control | [6] 93 % of control

Cn1nnc2c1CN=CN2
inactive: dose: 50.0 mg/kg/injection, schedule: Q01DX009 (ip), vehicle: saline 117 % of control | dose: 100.0 mg/kg/injection, schedule: Q01DX009 (ip), vehicle: saline 103 % of control | dose: 200.0 mg/kg/injection, schedule: Q01DX009 (ip), vehicle: saline 112 % of control

O=c1c2[nH]c3ccccc3sc=2c(=O)n1-c1ccccc1Cl
inactive: [1] 98 % of control | [8] 98 % of control | [3] 97 % of control

Cc1oc2c(c(=O)c1C)CN(Cc1ccccc1)CC2
inactive: dose: 100.0 mg/kg/injection, schedule: Q01DX001 (ip), vehicle: saline with Tween-80 100 % of control | dose: 200.0 mg/kg/injection, schedule: Q01DX001 (ip), vehicle: saline with Tween-80 100 % of control | dose: 400.0 mg/kg/injection, schedule: Q01DX001 (ip), vehicle: saline with Tween-80 99 % of control

COc1ccc2c(c1)[C@@]13CCCCC1[C@@H](C2)NCC3 (stereo not given in full)
inactive: dose: 100.0 mg/kg/injection, schedule: Q04DX002 (ip), vehicle: Klucel (hydroxypropylcellulose) (HPC) 101 % of control

COC1OC2COC(c3ccccc3)OC2C(O)C1N (stereo not given)
inactive: [13] 112 % of control | dose: 25.0 mg/kg/injection, schedule: Q04DX003 (ip), vehicle: saline with Tween-80 100 % of control | [14] 95 % of control | dose: 50.0 mg/kg/injection, schedule: Q04DX003 (ip), vehicle: saline with Tween-80 100 % of control | dose: 100.0 mg/kg/injection, schedule: Q01DX009 (ip), vehicle: saline with Tween-80 104 % of control | dose: 100.0 mg/kg/injection, schedule: Q04DX003 (ip), vehicle: saline with Tween-80 100 % of control

CCCCC(=O)Oc1cc(=O)n(C)c2cc(C)n(C)c(=O)c12
inactive: [10] 98 % of control | [11] 103 % of control | [12] 106 % of control

CS(=O)CCCC#N (stereo not given)
inactive: dose: 18.75 mg/kg/injection, schedule: Q01DX009 (ip), vehicle: saline with Tween-80 115 % of control | dose: 37.5 mg/kg/injection, schedule: Q01DX009 (ip), vehicle: saline with Tween-80 100 % of control | dose: 75.0 mg/kg/injection, schedule: Q01DX009 (ip), vehicle: saline with Tween-80 110 % of control | dose: 150.0 mg/kg/injection, schedule: Q01DX009 (ip), vehicle: saline with Tween-80 100 % of control | dose: 300.0 mg/kg/injection, schedule: Q01DX009 (ip), vehicle: saline with Tween-80 105 % of control

CCCC(=O)O[C@H]1/C(=C/C(=O)OC)C[C@H]2C[C@H]([C@@H](C)O)OC(=O)C[C@H](O)C[C@@H]3C[C@H](OC(=O)CC(C)C)C(C)(C)[C@](O)(C[C@@H]4C/C(=C\C(=O)OC)C[C@H](/C=C/C(C)(C)[C@]1(O)O2)O4)O3
inactive: dose: 0.01 mg/kg/injection, schedule: Q01DX009 (ip), vehicle: saline + alcohol 111 % of control | dose: 0.05 mg/kg/injection, schedule: Q01DX009 (ip), vehicle: saline + alcohol 113 % of control
